Source: patent US8796323B2, “Defensin-like molecules as novel antimicrobial agents” (University of Maryland, Baltimore, priority 2010, dated 2014)
No end group written: not given here.

Assays:
[1] = Surface Plasmon Resonance binding of compounds to immobilized 3-Lipid II; conditions: SPR, FIG. 5
Experimental: The present inventors examined if the identified compounds themselves directly interact with Lipid II, which would be expected if they mimic the binding of HNP-1. Binding of compounds was tested directly using Surface Plasmon Resonance with 3-Lipid II immobilized on the chip surface (FIG. 5).

[2] = tested on: Staphylococcus aureus ATCC 29213; experiment: vCC antibacterial assay, S. aureus; type: cell-based; conditions: 30 minutes exposure, 500 to 1.95 μM
Experimental: (§1) The inventors have now tested the bacterial killing capacity of the identified compounds. The antibacterial activity was determined using the vCC assay as discussed in Ericksen, B., Wu, Z., Lu, W. and Lehrer, R. I. (2005), “Antibacterial activity and specificity of the six human {alpha}-defensins. Antimicrob Agents” Chemother 49, 269-75.). All compounds were tested initially for killing of Staphylococcus aureus ATCC 29213. All compounds were dissolved in DiMethylSulfylOxide (DMSO) and exposed to bacteria for 30 minutes in concentrations ranging from 500 to 1.95 μM. Compounds effectively killing S. aureus were subsequently tested against E. coli ATCC 25922 to assay for strain-selectivity.

E. coli ATCC 25922 = experiment: vCC antibacterial assay, E. coli (strain-selectivity); type: cell-based; conditions: 30 minutes exposure, 500 to 1.95 μM
Experimental: as §1

[3] = tested on: intestinal epithelial cell line Caco-2; experiment: Caco-2 cell viability, MTT assay; type: cell-based; conditions: Caco-2, 24 h
Experimental: Caco-2 cells were seeded at 2. 10^5 cells/ml and exposed to compounds ranging in concentration from 500 to 3.7125 μM. Cell viability was determined after 24 h by the MTT assay and is expressed as a percentage of the viability of untreated cells.

[4] = ANTS/DPX leakage assay from large unilamellar vesicles; conditions: POPG LUVs, panel of six human α-defensins, FIG. 1
Experimental: Large unilamellar vesicles (LUVs) with the low molecular weight fluorophore/quencher pair (ANTS/DPX) encapsulated were prepared using the standard extrusion method. Specifically, phospholipids were dissolved in chloroform at a desired molar ratio, dried as a film by solvent evaporation. After removal of residual solvent, the lipid film was hydrated in the fluorescent solution containing 5 mM HEPES, 12.5 mM ANTS, 45 mM DPX, and 20 mM NaCl, pH 7.0, freeze-thawed for 10 cycles and extruded 10 times through 0.4-μm polycarbonate membranes. LUVs were separated from unencapsulated materials by gel filtration chromatography using a Sepharose CL-4B column eluted with 5 mM HEPES, 100 mM NaCl, pH 7.4 (high-salt). For leakage assays in a low-salt buffer, purified vesicles were further diluted with 5 mM HEPES containing 10 mM NaCl, pH 7.4.
Leakage of ANTS from LUVs, monitored on a LS-55 Perkin Elmer luminescence spectrometer, was characterized by an increase in fluorescence, which was quenched by DPX when encapsulated together inside liposomes (Ellens, H., et al., 1985, “H+- and Ca2+-induced fusion and destabilization of liposomes,” Biochemistry 24:3099-3106). 270 μl ANTS/DPX-encapsulated LUVs (in either high-salt or low-salt buffers) were added to each well of a 96-well plate to a final lipid concentration of 600 μM. 30 μl H2O was added to the first well of each row as a blank, and 30 μl 2.5% (v/v) Triton X-100 to the last (twelfth) well as the control for 100% leakage. Upon addition of 30 μl of a twofold dilution series of defensin, the fluorescence signal was recorded at 515 nm with an excitation wavelength of 353 nm, 10 nm bandwidths and a 390 nm cut-off filter in the emission path. Percent leakage is expressed as: % leakage=((Ft−F0)/(F100−F0))×100 where Ft is the fluorescence determined at different time points after addition of defensin, F0 is the background fluorescence of the “blank” cells, and F100 is the fluorescence of the control cells containing 0.25% Triton X-100. Lipid II Purification
Defensins are believed to kill bacteria by permeabilizing the membrane, causing leakage of intracellular content and eventually cell lysis and death. The present inventors tested the ability of six human α-defensins to induce leakage of fluorophores encapsulated in LUVs (See FIG. 1). […] (A) At high salt concentration (5 mM HEPES, 100 mM NaCl, pH 7.4). (B) At low salt concentration (5 mM HEPES, 10 mM NaCl, pH 7.4). LUVs were 250 nm in diameter and 600 μM (phospholipids) in concentration.
(A) Effects of surface charge on HNP1-induced leakage from LUVs of four different compositions: POPC (circle, surface charge=0), POPC/POPG=3:2 (square, surface charge=−0.4), POPC/POPG=2:3 (triangle, surface charge=−0.6), and POPG (diamond, surface charge=−1). (B) LUV (POPG:DPPC 1:1) leakage induced by L-HNP1 (circles) or D-HNP1 (squares). A two-fold dilution series of HNP1 peptides from 0.19 to 100 μg/ml was incubated with 600 μM LUVs for one hour before readings were taken. Error bars indicate the standard error in triplicate experiments.

S. aureus = conditions: literature (Ericksen 2005; Wei 2009); cited from earlier work

With “3-ethyl-5-methyl-4-phenyl-2-[3-(1,3,3-trimethyl-1,3-dihydro-2H-indol-2-ylidene)prop-1-en-1-yl]-1,3-thiazol-3-ium [Compound 7771-0701]” the “binding to 3-Lipid II immobilized on the chip surface” value (“binding to 3-Lipid II immobilized” below) [1] was “bind to Lipid II” and the “killing of S. aureus” value [2] was “very efficient in killing of S. aureus”.

In the case of `Oc1ccc(C(c2ccc(O)cc2)c2ccc(F)cc2)cc1` [Compound 0251-0215, 4-[(4-fluorophenyl)(4-hydroxyphenyl)methyl]phenol], the “binding to 3-Lipid II immobilized” value [1] is reported as “bind to Lipid II” and the “killing of S. aureus” value [2] is reported as “very efficient in killing of S. aureus”.

For `OCc1ccc2c(c1)C1c3ccccc3C2c2ccccc21` [Compound 5100015, pentacyclo[6.6.6.0˜2,7˜.0˜9,14˜.0˜15,20˜]icosa-2,4,6,9,11,13,15,17,19-nonaen-4-ylmethanol], the “binding to 3-Lipid II immobilized” value [1] was “bind to Lipid II” and the “killing of S. aureus” value [2] was “very efficient in killing of S. aureus”.

For `CC[n+]1c(/C=C/C=C2C=C(/C=C/N(C)c3ccccc3)CC(C)(C)C/2)sc2ccccc21` [Compound 5107930, 2-[3-(5,5-dimethyl-3-{2-[methyl(phenyl)amino]vinyl}-2-cyclohexen-1-ylidene)-1-propen-1-yl]-3-ethyl-1,3-benzothiazol-3-ium iodide], the “bactericidal activity against E. coli” value (E. coli ATCC 25922) was “Shows little bactericidal activity against E. coli”, the “killing of S. aureus” value [2] was “Effectively kills S. aureus at low concentrations” and the cytotoxicity [3] was “Displays relatively low cytotoxicity”.

In the case of “HNP4: fourth human neutrophil α-defensin (VCSCRLVFCRRTELRVGNCLIGGVSFTYCCTRV; not fully specified; ends and bridges not checked; UniProt P12838 64-96, looked up)”, the “membrane activity (leakage of ANTS-DPX from POPG LUVs)” value [4] is given as “most membrane active defensin in the panel of six” and the “bactericidal activity against S. aureus / Gram-positive bacteria” value (S. aureus) is given as “ineffective against Gram-positive bacteria”.

B1: HD-5: α-defensin Human Defensin 5 (peptide, UniProt Q01523 20-94, looked up)
Defensin alpha 5: ESLQERADEATTQKQSGEDNQDLAISFAGNGLSALRTSGSQARATCYCRTGRCATRESLSGVCEISGRLYRLCCR
modifications: Defensin-5
In the case of B1, the “membrane activity (leakage of ANTS-DPX from POPG LUVs)” value [4] is given as “little membrane activity even at high concentrations” and the “bactericidal activity against S. aureus / Gram-positive bacteria” value (S. aureus) is given as “potently bactericidal”.
